In patent publication US20240309004A1, “SELECTIVE CYCLIN-DEPENDENT KINASE INHIBITORS AND METHODS OF THERAPEUTIC USE THEREOF” (ViroKyne Therapeutics, LLC, priority 2021, published 2024):

How the values were obtained:
[1] = test system: HCMV strain AD169; assay: HCMV primary assay (CPE), strain AD169, HFF cells; assay type: cell-based, Human Cytomegalovirus; settings: Human betaherpesvirus 5, HCMV primary assay, virus strain AD169, HFF cells
Experimental: The antiviral activity of the compound against HCMV in the described Primary assay was measured by treating primary Human foreskin fibroblast (HFF) cells infected with HCMV with a range of compound concentrations—description of methods for this assay can be found in section 1.3.2.1. […] . Additional tested assay parameters in this Primary assay can be found in Table 3.2.1 and include EC90, S150, and S190 values—descriptions of those data points can be found in section 3.2.1.

[2] = test system: Human papillomavirus 11 strain HE611260.1; assay: Human papillomavirus 11 primary assay (replicon), C-33 A cells; assay type: cell-based; settings: strain HE611260.1, C-33 A cells
Excerpt: (§1) An HPV11 replicon assay was developed and expresses the essential E1 and E2 proteins from the native promoter. The E2 origin binding protein interacts with the virus origin of replication and recruits the E1 replicative helicase which unwinds the DNA and helps to recruit the cellular DNA replication machinery (including DNA polymerases, type I and type II topoisomerases, DNA ligase, single-stranded DNA binding proteins, proliferating cell nuclear antigen). The replication complex then drives the amplification of the replicon which can be assessed by the expression of a destabilized NanoLuc reporter gene carried on the replicon. In this assay, the replicon (pMP619) is transfected into C-33 A cells grown as monolayers in 384-well plates. At 48 h post transfection, the enzymatic activity of the destabilized NanoLuc reporter is assessed with NanoGlo reagent. […] . Beadle et al., 2016.

[3] = test system: Human herpes virus 8 strain BCBL-1; assay: Human herpes virus 8 primary assay, BCBL-1 cells; assay type: cell-based, Human Herpesvirus 8; settings: Human gammaherpesvirus 8, BCBL1, strain BCBL-1, BCBL-1 cells
[4] = Metabolic stability in mice liver microsomes; settings: mice liver microsomes, 1 μM compound, 1 mM NADPH, 60 min
Experimental: Potassium phosphate buffer (Kphos) was prepared by adding 0.647 g potassium phosphate monobasic (KH2PO4) and 3.527 g potassium phosphate dibasic (K2HPO4) to 400 mL of Milli-Q water. pH of the buffer was adjusted to 7.4 and volume was made up to 500 mL.
Stock solutions of the test compounds were prepared in DMSO at a concentration of 1 mM.
To this microsomal mix 1.42 μL (1 mM) of test compound and positive control were spiked, from this mix 70 μL was transferred to 96 well plate and pre-incubated at 37° C. for 5 min. […] The plates were centrifuged at 4000 RPM for 15 min and 100 μL aliquots were submitted for analysis by LC-MS/MS.
Samples were monitored for parent compound disappearance in MRM mode using LC-MS/MS. The LC-MS/MS conditions and MRM chromatogram will be provided as per client request.
The peak area ratios of analyte versus internal standard were used to calculate the % remaining at the end of 60 minutes in presence NADPH.

[5] = molecular target: CDK9/cyclin T1 (Homo sapiens (Human), UniProt P50750); assay: Kinase activity assay, CDK9/cyclin T1; assay type: biochemical; settings: Table 3.1.2; 10 μM ATP; 10-dose triplicate starting at 9.827 μM; unit not printed (table 3.1.1 prints M); read-out: CDK9/cyclin T1 kinase activity (IC50)
CDK9/cyclin T1, sequence (P50750 whole entry): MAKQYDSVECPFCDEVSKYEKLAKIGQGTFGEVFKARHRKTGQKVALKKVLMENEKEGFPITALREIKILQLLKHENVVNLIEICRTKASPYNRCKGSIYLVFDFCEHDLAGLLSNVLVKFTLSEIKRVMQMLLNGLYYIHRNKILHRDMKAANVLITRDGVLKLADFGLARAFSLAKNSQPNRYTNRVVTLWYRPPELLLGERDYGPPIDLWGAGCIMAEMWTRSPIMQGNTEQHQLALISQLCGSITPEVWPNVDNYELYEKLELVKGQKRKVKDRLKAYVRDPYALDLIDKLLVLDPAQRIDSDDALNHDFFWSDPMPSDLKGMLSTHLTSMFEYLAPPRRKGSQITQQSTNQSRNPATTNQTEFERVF
CDK9/cyclin T1, sequence (O60563 whole entry partner): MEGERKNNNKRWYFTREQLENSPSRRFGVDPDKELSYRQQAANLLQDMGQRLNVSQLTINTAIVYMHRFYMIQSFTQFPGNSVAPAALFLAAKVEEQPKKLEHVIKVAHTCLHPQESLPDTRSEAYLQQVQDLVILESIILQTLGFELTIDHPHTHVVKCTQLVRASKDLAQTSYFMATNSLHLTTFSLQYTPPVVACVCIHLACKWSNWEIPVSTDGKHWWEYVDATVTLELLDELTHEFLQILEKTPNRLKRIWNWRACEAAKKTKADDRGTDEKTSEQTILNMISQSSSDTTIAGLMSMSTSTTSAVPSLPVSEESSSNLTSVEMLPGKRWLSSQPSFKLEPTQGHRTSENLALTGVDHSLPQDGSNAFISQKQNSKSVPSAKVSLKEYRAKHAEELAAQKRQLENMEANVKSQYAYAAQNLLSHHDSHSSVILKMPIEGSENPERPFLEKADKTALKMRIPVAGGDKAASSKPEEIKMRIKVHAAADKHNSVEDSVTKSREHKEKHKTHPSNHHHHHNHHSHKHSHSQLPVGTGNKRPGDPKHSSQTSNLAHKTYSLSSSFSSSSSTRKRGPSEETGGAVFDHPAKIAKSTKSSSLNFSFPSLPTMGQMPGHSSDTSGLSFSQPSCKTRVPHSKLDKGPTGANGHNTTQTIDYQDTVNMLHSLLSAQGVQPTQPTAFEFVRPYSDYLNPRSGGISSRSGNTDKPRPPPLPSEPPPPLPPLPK

[6] = Cytotoxicity concurrent with HPV11 primary assay; assay type: cell-based; settings: human, C-33 A cells
Excerpt: as §1

[7] = Cytotoxicity concurrent with HHV-8 primary assay; assay type: cell-based; settings: human, BCBL-1 cells
[8] = Cytotoxicity concurrent with HHV-6B primary assay; assay type: cell-based; settings: human, MOLT-3 cells
[9] = Cytotoxicity concurrent with HCMV AD169 primary assay; assay type: cell-based, human; settings: human, CC50
[10] = test system: Human herpes virus 6B strain Z29; assay: Human herpes virus 6B primary assay, strain Z29, MOLT-3 cells; assay type: cell-based, Human Herpesvirus 6B; settings: Human betaherpesvirus 6B

Work on `Fc1ccc2c(c1)nn1cnc(NC3CCOCC3)cc21` [VKT-320, 7-fluoro-N-(tetrahydro-2H-pyran-4-yl)pyrimido[1,6-b]indazol-3-amine] yielded an EC50 ([1]; read-out: EC50) of 10 µM, an EC90 ([1]; read-out: EC90) of 10 µM and an EC50 [2] of 7.99 µM. The EC90 [2] was 19.8 µM, the EC50 [3] was 22.1 µM and the EC90 [3] was 44.2 µM. For the same molecule, the “% Remaining at 60 min” value [4] was 37%, the IC50 [5] was 1.68 µM and the CC50 [6] was 50 µM. It also gave a CC50 [7] of 50 µM, a CC50 at 7 d [8] of 50 µM and a CC50 [9] of 38.5 µM. The EC50 [10] was 8.96 µM and the EC90 [10] was 32.6 µM.
